Assay results from patent publication US8431565B2 (priority 2007, dated 2013).

Columns and labels:
Male Sprague-Dawley rats = assay: Complete Freund's Adjuvant (CFA) model of inflammatory pain, Randall-Selitto paw pressure; type: in vivo; conditions: rat, intraperitoneal
Description: Male Sprague-Dawley rats (Hsd:Sprague-Dawley®™ SD®™, Harlan, Indianapolis, Ind.) weighing 201±1 grams, were housed three per cage. Animals had free access to food and water and were maintained on a twelve hour light/dark schedule for the entire duration of the experiment. Approximately 12 hours prior to behavioral testing, animals were placed on wire mesh bottom cages with free access to water but no access to food. Test compounds were prepared in 50% PEG-400 (Sigma-Aldrich, cat. P3265). Indomethacin (Fluka, cat 57413) was suspended in 0.5% methylcellulose (Sigma-Aldrich, cat. 274429). Groups of eight animals were anesthetized with 2-3% isoflurane and local inflammation induced by 50 μl CFA (Sigma-Aldrich, cat F5881, Mycobacterium tuberculosis 1 mg/ml) injected subcutaneously into the plantar surface of the left paw.
Assessment of mechanical hyperalgesia: Baseline and post-treatment withdrawal thresholds to a noxious mechanical stimulus were measured using the Randall-Selitto paw pressure apparatus (Ugo Basile Analgesymeter, model 7200). […] Mechanical hyperalgesia was measured using the Randall-Selitto paw pressure device before CFA injection and after intraperitoneal (i.p.) compound administration over a twenty-four-hour period. The mean and standard error of the mean (SEM) were determined for the injured and normal paws for each treatment group.

rat CB2 receptor (rCB2) = molecular target: T1, rat CB2 receptor (rCB2) (Rattus norvegicus, UniProt Q9QZN9)
T1 sequence (Q9QZN9 1-360): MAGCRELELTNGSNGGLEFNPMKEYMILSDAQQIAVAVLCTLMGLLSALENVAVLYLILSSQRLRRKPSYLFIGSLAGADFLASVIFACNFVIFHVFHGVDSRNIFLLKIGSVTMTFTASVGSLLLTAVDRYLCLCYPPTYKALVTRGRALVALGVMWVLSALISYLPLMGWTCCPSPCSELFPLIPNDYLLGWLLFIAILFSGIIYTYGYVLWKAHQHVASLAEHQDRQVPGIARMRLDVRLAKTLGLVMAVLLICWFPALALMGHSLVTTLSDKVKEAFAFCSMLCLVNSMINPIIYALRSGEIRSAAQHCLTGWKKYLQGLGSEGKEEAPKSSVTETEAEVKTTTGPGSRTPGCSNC

Male ICR mice = assay: Inhibition of acetic acid-induced writhing; type: in vivo, mouse; conditions: subcutaneous 3, 10 and 30 mg/kg, FIG. 2
From the text: 12: 525-562; Ramabadran and Bansinath (1986) Pharm. Res. 3: 263-270]. Intraperitoneal administration of dilute acetic acid solution causes a writhing behavior in mice. A writhe is defined as a contraction of the abdominal muscles accompanied by an extension of the forelimbs and elongation of the body. The number of writhes observed in the presence and absence of test compounds is counted to determine the analgesic activity of the compounds.
Male ICR mice, 20-40 grams in weight, were weighed and placed in individual observation chambers (usually a 4000 ml beaker) with a fine layer of rodent bedding at the bottom. To determine the activity and potency of test compounds, different doses of the compound solution or vehicle were injected subcutaneously in the back of the neck 30 minutes prior to administration of acetic acid solution. After administration of the compound or vehicle control, mice were returned to their individual observation chambers awaiting the intraperitoneal administration of acetic acid solution. Thirty minutes later, 10 ml/kg of a 0.6% (v/v) acetic acid solution was then injected into the right lower quadrant of the abdomen. […] The number of writhes was counted over a 15-min period starting from the time of acetic acid injection. Raw data were analyzed using a one-way ANOVA followed by Dunnett's post-tests. […]

rats [1] = assay: Carrageenan model of acute inflammation; type: in vivo; conditions: rat
rats [2] = assay: Spinal nerve ligation (SNL) model of neuropathic pain; type: in vivo; conditions: rat; oral 3, 10 and 30 mg/kg; FIG. 4
Description: The SNL model (Kim and Chung 1992) was used to induce chronic neuropathic pain in rats. The rats were anesthetized with isoflurane, the left L5 transverse process was removed, and the L5 and L6 spinal nerves were tightly ligated with 6-0 silk suture. The wound was then closed with internal sutures and external staples. Following at least seven days post SNL, baseline, post-injury and post-treatment values for non-noxious mechanical sensitivity were evaluated using eight Semmes-Weinstein filaments (Stoelting, Wood Dale, Ill., USA) with varying stiffness (0.4, 0.7, 1.2, 2.0, 3.6, 5.5, 8.5, and 15 g) according to the up-down method (Chaplan et al. 1994). Animals were placed on a perforated metallic platform and allowed to acclimate to their surroundings for a minimum of thirty minutes before testing. The mean and standard error of the mean (SEM) were determined for the injured paw in each treatment group. Since this stimulus is normally not considered painful, significant injury-induced increases in responsiveness in this test are interpreted as a measure of mechanical allodynia. The dose which elicited 50% attenuation of mechanical hypersensitivity (ED50) was determined using linear regression analysis. Results obtained after oral administration of compound 317 at 3, 10 and 30 mg/kg and with compound 366 at 1, 3 and 10 mg/kg are shown in FIG. 4.

[3] = molecular target: human CB1 receptor (hCB1) (Homo sapiens, UniProt P21554); type: cell-based
human CB1 receptor (hCB1), sequence (P21554 whole entry): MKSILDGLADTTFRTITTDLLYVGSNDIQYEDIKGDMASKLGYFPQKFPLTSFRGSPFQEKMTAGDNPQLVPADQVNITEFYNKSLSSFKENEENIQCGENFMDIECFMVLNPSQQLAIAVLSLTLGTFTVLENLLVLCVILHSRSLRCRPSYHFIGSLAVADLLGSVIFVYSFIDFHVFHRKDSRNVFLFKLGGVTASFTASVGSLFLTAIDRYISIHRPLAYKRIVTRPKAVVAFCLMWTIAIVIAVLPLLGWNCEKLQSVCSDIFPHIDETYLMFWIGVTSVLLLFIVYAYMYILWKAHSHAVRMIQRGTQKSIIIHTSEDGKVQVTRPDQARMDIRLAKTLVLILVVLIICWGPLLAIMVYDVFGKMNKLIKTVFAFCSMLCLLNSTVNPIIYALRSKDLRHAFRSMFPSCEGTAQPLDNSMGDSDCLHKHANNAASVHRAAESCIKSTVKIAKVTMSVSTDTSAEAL

SMILES	EC50 (rat CB2 receptor (rCB2))	inhibition of acetic acid-induced writhing (Male ICR mice)	response in the neuropathic pain model (rats [2])	other results
CCS(=O)(=O)N1CCn2c(-c3ccccc3)nc(C(=O)N[C@H](C(=O)NC)C(C)(C)C)c2C1 [Compound 91, (S)—N-(3,3-dimethyl-1-(methylamino)-1-oxobutan-2-yl)-7-(ethylsulfonyl)-3-phenyl-5,6,7,8-tetrahydroimidazo[1,5-a]pyrazine-1-carboxamide]	10 to 100 nM	–	–	side effects during the experiment (Male Sprague-Dawley rats; CFA experiment): No side effects were observed; effect on paw withdrawal threshold after intrapaw CFA (Male Sprague-Dawley rats; vs vehicle over twenty-four hours, FIG. 1): anti-hyperalgesic effect
CNC(=O)[C@@H](NC(=O)c1nc(-c2ccc(Cl)cc2F)n2c1CN(C)CCC2)C(C)(C)C [Compound 366, (S)-3-(4-chloro-2-fluorophenyl)-N-(3,3-dimethyl-1-(methylamino)-1-oxobutan-2-yl)-8-methyl-6,7,8,9-tetrahydro-5H-imidazo[1,5-a][1,4]diazepine-1-carboxamide]	–	dose response in the inhibition of acetic acid-induced writhing	dose response in the neuropathic pain model	inhibition of carrageenan-induced hyper-sensitivity (rats [1]; oral 1, 3 and 10 mg/kg, FIG. 3B): dose response in the inhibition of carrageenan-induced hyper-sensitivity
CNC(=O)[C@@H](NC(=O)c1nc(-c2ccc3c(c2)OCCO3)n2c1CN(C)CCC2)C(C)(C)C [Compound 326, (S)-3-(2,3-dihydrobenzo[b][1,4]dioxin-6-yl)-N-(3,3-dimethyl-1-(methylamino)-1-oxobutan-2-yl)-8-methyl-6,7,8,9-tetrahydro-5H-imidazo[1,5-a][1,4]diazepine-1-carboxamide]	10 to 100 nM	–	–	EC50 [3]: > 10000 nM
CNC(=O)[C@@H](NC(=O)c1nc(-c2ccccc2)n2c1CN(C)CCC2)C(C)(C)C [Compound 317, (S)—N-(3,3-dimethyl-1-(methylamino)-1-oxobutan-2-yl)-8-methyl-3-phenyl-6,7,8,9-tetrahydro-5H-imidazo[1,5-a][1,4]diazepine-1-carboxamide]	–	dose response in the inhibition of acetic acid-induced writhing	dose response in the neuropathic pain model	inhibition of carrageenan-induced hyper-sensitivity (rats [1]; sub-cutaneous 3, 10 and 30 mg/kg, FIG. 3A): dose response in the inhibition of carrageenan-induced hyper-sensitivity
